Laboratory results: patent US11970497B2, “Tricyclic AKR1C3 dependent KARS inhibitors” (Novartis AG, priority 2019, dated 2024)

Experiments:
Assay in all cases: Expanded lung cancer cell line proliferation assay
Type in all cases: cell-based
[1] = tested on: CORL-279; details: Homo sapiens, COR-L279; CORL-279, 72 h, average of PrestoBlue and Cell Titer Glo; AKR1C3 3.6 TPM; read-out: Absolute Qualified AC50
Description: (§1) Cellular Proliferation Assay to Assess Compound Activity in an Expanded Panel of 57 NRF2 Pathway Mutant and Wild Type Lung Cancer Cell Lines.
(§2) Both the PrestoBlue Cell Viability Reagent and Cell Titer Glo were multiplexed together as the final assay readout. PrestoBlue is a cell permeable resazurin-based solution that utilizes the reducing power of living cells to quantitatively measure their proliferation. Cell Titer Glo measures the amount of ATP present, an indicator of metabolically active cells.
(§3) Expanded Lung Cancer Cell Line Proliferation Assay Outline, Analysis and Profiling Results
(§4) Cells were seeded into 384 well assay plates (Greiner Bio-One, Catalog #781080) using the Thermo Scientific Matrix WellMate microplate dispenser and Thermo Scientific Matrix WellMate small bore disposable tubing cartridges (Catalog #201-30002) in 30 μl of growth media (RPMI-1640 supplemented with 10% fetal bovine serum and 1% penicillin/streptomycin) per well (1000 to 2000 cells/well depending on doubling time). Following cell plating, assay plates were placed into tissue culture incubator at 37° C./5% CO2 overnight. The next day one assay plate for each cell line was used for a Day 0 Cell Titer Glo and PrestoBlue readout. 3 μl of PrestoBlue Cell Viability Reagent (Thermo Scientific, Catalog #A13262) was added to each well and then assay plates were incubated at 37° C./5% CO2 for 30 minutes prior to fluorescence readout on the EnVision 2105 multimode plate reader (Perkin Elmer). Following the PrestoBlue readout 18 μl of Cell Titer Glo (Promega, Catalog #G7572) was then added to each well, allowing plates to incubate at room temperature for 10 minutes prior to luminescence readout on the EnVision. Compound was then added to the remaining assay plates (each cell line run in triplicates) using the Labcyte Inc Echo 555 acoustic liquid handler. Compounds were arrayed into a Labcyte Inc Echo qualified 384 well LDV microplate (Cat #LP-0200-GNF10). Compounds were serially diluted 1:3.16 to generate an 8 point dose response for a final top concentration of 1 μM. DMSO (0.3%) was used as the neutral control (NC) and MG132 (30 μM) was used as the active control (AC). 90 nl of compounds were added to 30 μl of cells using the Labcyte Inc Echo 555 acoustic liquid handler for a final DMSO assay concentration of 0.3%. Following compound addition, assay plates were spun down in a tabletop centrifuge at 500 rpm for 1 minute and then placed into tissue culture incubator at 37° C./5% CO2 for 72 h. Following the 72 h incubation, all assay plates were readout using PrestoBlue and Cell Titer Glo using the same conditions previously described for the Day 0 readout. The Day 0 readout (untreated cells) was used to compare to the 72 h DMSO treated samples on each assay plate as a way of tracking each cell line's fold growth. NC1 control based normalization was used for data analysis in Helios, which incorporates the DMSO neutral control (NC) and MG132 active control (AC) for generating dose response curves that are then used to calculate the Absolute Qualified AC50 calls for each compound and cell line.
(§5) NC1 normalization calculation model: NC1: xn=±(x−NC)/(AC−NC)
(§6) +/− is set by the inhibition type parameter setting where NC and AC are averages (mean or median) over the corresponding NC and AC well values. The Qualified Absolute AC50 values for Compound 36 and Compound 40 are listed in the table below and are represented as the average activity in both the PrestoBlue and Cell Titer Glo assay readouts.
(§7) Absolute Qualified AC50 Values Listed Below are a Representation of Each Compounds' Average Activity in Both the PrestoBlue and Cell Titer Glo Assay Readouts.

[2] = tested on: DMS-53; details: Homo sapiens; DMS-53, 72 h, average of PrestoBlue and Cell Titer Glo; AKR1C3 59.7 TPM; read-out: Absolute Qualified AC50
Description: as §1, §2, §3, §4, §5, §6, §7

[3] = tested on: EBC-1; details: Homo sapiens; EBC-1, 72 h, average of PrestoBlue and Cell Titer Glo; AKR1C3 92.4 TPM; read-out: Absolute Qualified AC50
Description: as §1, §2, §3, §4, §5, §6, §7

[4] = tested on: HCC78; details: Homo sapiens; HCC78, 72 h, average of PrestoBlue and Cell Titer Glo; AKR1C3 3 TPM; read-out: Absolute Qualified AC50
Description: as §1, §2, §3, §4, §5, §6, §7

[5] = tested on: HCC95; details: Homo sapiens; HCC95, 72 h, average of PrestoBlue and Cell Titer Glo; AKR1C3 939.1 TPM; read-out: Absolute Qualified AC50
Description: as §1, §2, §3, §4, §5, §6, §7

[6] = tested on: NCI-H1299; details: Homo sapiens; NCI-H1299, 72 h, average of PrestoBlue and Cell Titer Glo; AKR1C3 1.3 TPM; read-out: Absolute Qualified AC50
Description: as §1, §2, §3, §4, §5, §6, §7

[7] = tested on: NCI-H1435; details: NCI-H1435, 72 h, average of PrestoBlue and Cell Titer Glo; AKR1C3 171.1 TPM; read-out: Absolute Qualified AC50
Description: as §1, §2, §3, §4, §5, §6, §7

[8] = tested on: NCI-H1944; details: Homo sapiens; NCI-H1944, 72 h, average of PrestoBlue and Cell Titer Glo; AKR1C3 3164.3 TPM; read-out: Absolute Qualified AC50
Description: as §1, §2, §3, §4, §5, §6, §7

[9] = tested on: NCI-H2172; details: NCI-H2172, 72 h, average of PrestoBlue and Cell Titer Glo; AKR1C3 1522.4 TPM; read-out: Absolute Qualified AC50
Description: as §1, §2, §3, §4, §5, §6, §7

[10] = tested on: NCI-H460; details: Homo sapiens; NCI-H460, 72 h, average of PrestoBlue and Cell Titer Glo; AKR1C3 865.3 TPM; read-out: Absolute Qualified AC50
Description: as §1, §2, §3, §4, §5, §6, §7

[11] = tested on: NCI-H524; details: Homo sapiens; NCI-H524, 72 h, average of PrestoBlue and Cell Titer Glo; AKR1C3 0.8 TPM; read-out: Absolute Qualified AC50
Description: as §1, §2, §3, §4, §5, §6, §7

[12] = tested on: NCI-H596; details: Homo sapiens; NCI-H596, 72 h, average of PrestoBlue and Cell Titer Glo; AKR1C3 265.6 TPM; read-out: Absolute Qualified AC50
Description: as §1, §2, §3, §4, §5, §6, §7

[13] = tested on: NCI-H838; details: Homo sapiens; NCI-H838, 72 h, average of PrestoBlue and Cell Titer Glo; AKR1C3 233 TPM; read-out: Absolute Qualified AC50
Description: as §1, §2, §3, §4, §5, §6, §7

[14] = tested on: PC-14; details: Homo sapiens; PC-14, 72 h, average of PrestoBlue and Cell Titer Glo; AKR1C3 1466.3 TPM; read-out: Absolute Qualified AC50
Description: as §1, §2, §3, §4, §5, §6, §7

Compound	AC50 [1] [nM]	AC50 [2] [nM]	AC50 [3] [nM]	AC50 [4] [nM]	AC50 [5] [nM]	AC50 [6] [nM]	AC50 [7] [nM]	AC50 [8] [nM]	AC50 [9] [nM]	AC50 [10] [nM]	AC50 [11] [nM]	AC50 [12] [nM]	AC50 [13] [nM]	AC50 [14] [nM]
CN1c2ccc(F)cc2C(=O)CC12CCN(C(=O)NCc1ccc(F)c(NCCO)c1)CC2 [Example 36, 6′-fluoro-N-(4-fluoro-3-((2-hydroxyethyl)amino)benzyl)-1′-methyl-4′-oxo-3′,4′-dihydro-1′H-spiro[piperidine-4,2′-quinoline]-1-carboxamide]	> 1000	> 1000	> 1000	> 1000	287	> 1000	478	275	> 1000	268	> 1000	754	> 1000	308
O=C1CC2(CCN(C(=O)NCc3ccc(F)cc3)CC2)Nc2ccc(F)cc21 [Example 40]	> 1000	> 1000	> 1000	> 1000	69	> 1000	273	52	149	50	> 1000	334	641	92
